Assay results from PMC3961306, “Comparison of the Cancer Gene Targeting and Biochemical Selectivities of All Targeted Kinase Inhibitors Approved for Clinical Use” (PLoS ONE, 2014).

What was measured:
Experiment in all cases: Kinase profiling in a biochemical assay panel (mobility shift assays and ELISA), %-inhibition at 1 μM; selectivity entropy
[1] = biological target: panel of more than 300 wild-type and mutant kinases (313 kinase panel) (Homo sapiens, UniProt Q86Z02)
[2] = biological target: panel of more than 300 wild-type and mutant kinases (313 kinase panel) (Homo sapiens, UniProt Q9P0L2)
panel of more than 300 wild-type and mutant kinases (313 kinase panel) (Homo sapiens, UniProt Q9P0L2), sequence (Q9P0L2 whole entry, change not shown): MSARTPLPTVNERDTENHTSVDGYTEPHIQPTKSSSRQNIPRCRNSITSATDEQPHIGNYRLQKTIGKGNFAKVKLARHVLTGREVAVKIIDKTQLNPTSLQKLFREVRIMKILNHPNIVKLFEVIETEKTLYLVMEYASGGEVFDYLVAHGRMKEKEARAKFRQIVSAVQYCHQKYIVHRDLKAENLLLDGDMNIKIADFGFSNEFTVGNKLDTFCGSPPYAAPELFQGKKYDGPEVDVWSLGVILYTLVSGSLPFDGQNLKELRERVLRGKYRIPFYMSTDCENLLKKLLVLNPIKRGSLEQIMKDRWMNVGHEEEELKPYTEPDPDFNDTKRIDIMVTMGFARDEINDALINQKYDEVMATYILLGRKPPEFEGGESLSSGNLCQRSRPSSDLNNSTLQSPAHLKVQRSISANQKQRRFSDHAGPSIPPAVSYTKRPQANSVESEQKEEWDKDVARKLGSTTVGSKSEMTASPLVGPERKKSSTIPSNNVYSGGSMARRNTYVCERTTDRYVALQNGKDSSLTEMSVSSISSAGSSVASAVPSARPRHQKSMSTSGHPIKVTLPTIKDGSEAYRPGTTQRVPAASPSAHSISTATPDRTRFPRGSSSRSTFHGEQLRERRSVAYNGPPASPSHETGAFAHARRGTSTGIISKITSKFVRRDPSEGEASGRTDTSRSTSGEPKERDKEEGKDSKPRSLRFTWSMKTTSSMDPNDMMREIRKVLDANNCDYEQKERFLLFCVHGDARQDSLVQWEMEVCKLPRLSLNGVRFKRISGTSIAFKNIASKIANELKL

[3] = biological target: panel of more than 300 wild-type and mutant kinases (313 kinase panel) (Homo sapiens, UniProt P29317)
[4] = biological target: T1, panel of more than 300 wild-type and mutant kinases (313 kinase panel) (Homo sapiens, UniProt O15530)
T1 sequence (O15530 1-556): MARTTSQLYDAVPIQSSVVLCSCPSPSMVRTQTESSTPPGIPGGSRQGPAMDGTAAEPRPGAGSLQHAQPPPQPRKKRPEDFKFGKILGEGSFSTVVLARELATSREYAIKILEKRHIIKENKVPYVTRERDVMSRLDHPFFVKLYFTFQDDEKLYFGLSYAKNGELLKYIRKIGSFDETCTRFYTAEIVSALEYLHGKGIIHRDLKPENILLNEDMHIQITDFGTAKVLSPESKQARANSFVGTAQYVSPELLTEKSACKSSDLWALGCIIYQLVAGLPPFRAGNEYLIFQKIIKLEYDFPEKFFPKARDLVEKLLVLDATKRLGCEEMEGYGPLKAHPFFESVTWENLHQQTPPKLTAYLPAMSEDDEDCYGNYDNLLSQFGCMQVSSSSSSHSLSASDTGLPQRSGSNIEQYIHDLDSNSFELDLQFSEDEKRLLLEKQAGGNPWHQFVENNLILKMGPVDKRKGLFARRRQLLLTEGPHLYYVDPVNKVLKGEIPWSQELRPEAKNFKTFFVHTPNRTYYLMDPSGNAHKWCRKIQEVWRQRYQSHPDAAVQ

[5] = biological target: panel of more than 300 wild-type and mutant kinases (313 kinase panel) (Homo sapiens, UniProt Q5VT25)
[6] = biological target: panel of more than 300 wild-type and mutant kinases (313 kinase panel) (Homo sapiens, UniProt P27361)
panel of more than 300 wild-type and mutant kinases (313 kinase panel) (Homo sapiens, UniProt P27361), sequence (P27361 whole entry, change not shown): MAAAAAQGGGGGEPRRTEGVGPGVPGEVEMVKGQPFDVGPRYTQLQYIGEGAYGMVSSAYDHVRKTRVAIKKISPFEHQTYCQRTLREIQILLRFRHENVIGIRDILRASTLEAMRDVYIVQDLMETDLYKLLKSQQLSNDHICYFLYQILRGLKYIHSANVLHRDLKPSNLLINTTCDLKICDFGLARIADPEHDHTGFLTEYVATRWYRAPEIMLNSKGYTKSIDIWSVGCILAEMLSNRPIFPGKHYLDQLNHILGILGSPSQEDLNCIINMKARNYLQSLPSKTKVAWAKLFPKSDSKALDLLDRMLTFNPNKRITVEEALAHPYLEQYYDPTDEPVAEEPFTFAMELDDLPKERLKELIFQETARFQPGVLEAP

[7] = biological target: panel of more than 300 wild-type and mutant kinases (313 kinase panel) (Homo sapiens, UniProt P17612)
[8] = biological target: panel of more than 300 wild-type and mutant kinases (313 kinase panel) (Homo sapiens, UniProt Q9Y6E0)
[9] = biological target: panel of more than 300 wild-type and mutant kinases (313 kinase panel) (Homo sapiens, UniProt P19525)
[10] = biological target: T2, panel of more than 300 wild-type and mutant kinases (313 kinase panel) (Homo sapiens, UniProt O00141)
T2 sequence (O00141 1-431): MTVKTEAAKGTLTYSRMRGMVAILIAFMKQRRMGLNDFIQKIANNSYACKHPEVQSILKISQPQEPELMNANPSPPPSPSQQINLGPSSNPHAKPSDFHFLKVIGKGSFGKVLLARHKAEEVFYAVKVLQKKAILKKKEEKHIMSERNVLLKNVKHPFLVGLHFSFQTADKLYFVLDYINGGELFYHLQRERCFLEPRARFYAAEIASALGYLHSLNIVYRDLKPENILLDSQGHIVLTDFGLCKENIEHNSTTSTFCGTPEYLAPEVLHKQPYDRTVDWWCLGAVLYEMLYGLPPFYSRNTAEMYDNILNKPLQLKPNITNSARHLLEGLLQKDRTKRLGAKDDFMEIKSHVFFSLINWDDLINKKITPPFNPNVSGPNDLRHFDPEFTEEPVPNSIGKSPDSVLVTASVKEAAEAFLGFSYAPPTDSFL

[11] = biological target: T3, panel of more than 300 wild-type and mutant kinases (313 kinase panel) (Homo sapiens, UniProt Q8NE63)
T3 sequence (Q8NE63 1-616): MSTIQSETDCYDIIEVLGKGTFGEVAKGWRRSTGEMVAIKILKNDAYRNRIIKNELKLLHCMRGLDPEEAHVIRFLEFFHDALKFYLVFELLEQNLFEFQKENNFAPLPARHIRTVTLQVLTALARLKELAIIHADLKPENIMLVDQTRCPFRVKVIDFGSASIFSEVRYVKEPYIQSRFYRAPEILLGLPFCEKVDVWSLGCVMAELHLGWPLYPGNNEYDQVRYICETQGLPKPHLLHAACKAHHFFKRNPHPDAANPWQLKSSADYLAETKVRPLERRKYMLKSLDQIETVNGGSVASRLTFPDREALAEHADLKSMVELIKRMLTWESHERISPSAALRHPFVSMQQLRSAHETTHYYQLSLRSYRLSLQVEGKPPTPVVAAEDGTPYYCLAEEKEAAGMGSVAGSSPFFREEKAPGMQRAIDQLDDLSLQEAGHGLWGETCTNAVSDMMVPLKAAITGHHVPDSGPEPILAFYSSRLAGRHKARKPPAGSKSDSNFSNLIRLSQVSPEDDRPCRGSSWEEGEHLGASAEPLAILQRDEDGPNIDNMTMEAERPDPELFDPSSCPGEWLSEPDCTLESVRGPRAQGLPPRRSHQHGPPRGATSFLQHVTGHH

## CO[C@H]1C[C@@H]2CC[C@@H](C)[C@@](O)(O2)C(=O)C(=O)N2CCCC[C@H]2C(=O)O[C@H]([C@H](C)C[C@@H]2CC[C@@H](OCCO)[C@H](OC)C2)CC(=O)[C@H](C)/C=C(\C)[C@@H](O)[C@@H](OC)C(=O)[C@H](C)C[C@H](C)/C=C/C=C/C=C/1C [everolimus]
[1]; kinase HIPK1, compound at 1 μM
  %-inhibition of HIPK1: -6%
[2]; kinase MARK1, compound at 1 μM
  %-inhibition of MARK1: -0.63%
[3]; kinase EPHA2, compound at 1 μM
  %-inhibition of EPHA2: -4%
[4]; kinase PDK1, 1 μM
  %-inhibition of PDK1: -9%
[5]; kinase MRCKα, 1 μM
  %-inhibition of MRCKα: -6%
[6]; kinase Erk1, compound at 1 μM
  %-inhibition of Erk1: -0.906%
[7]; kinase PKACα, 1 μM
  %-inhibition of PKACα: -6%
[8]; kinase MST3, 1 μM
  %-inhibition of MST3: 0.288%
[9]; kinase PKR, 1 μM
  %-inhibition of PKR: -8.45%
[10]; kinase SGK, 1 μM
  %-inhibition of SGK: -6.59%
[11]; kinase HIPK4, compound at 1 μM
  %-inhibition of HIPK4: -6.34%

## COc1cc2c(Nc3ccc(Br)cc3F)ncnc2cc1OCC1CCN(C)CC1 [vandetanib]
[1]; kinase HIPK1, compound at 1 μM
  %-inhibition of HIPK1: -8%
[2]; kinase MARK1, compound at 1 μM
  %-inhibition of MARK1: -14%
[3]; kinase EPHA2, compound at 1 μM
  %-inhibition of EPHA2: 86%
[4]; kinase PDK1, 1 μM
  %-inhibition of PDK1: -4.37%
[5]; kinase MRCKα, 1 μM
  %-inhibition of MRCKα: -6%
[6]; kinase Erk1, compound at 1 μM
  %-inhibition of Erk1: -1.55%
[7]; kinase PKACα, 1 μM
  %-inhibition of PKACα: 1.29%
[8]; kinase MST3, 1 μM
  %-inhibition of MST3: 7%
[9]; kinase PKR, 1 μM
  %-inhibition of PKR: -1.09%
[10]; kinase SGK, 1 μM
  %-inhibition of SGK: -4.51%
[11]; kinase HIPK4, compound at 1 μM
  %-inhibition of HIPK4: 20%

## CCCS(=O)(=O)Nc1ccc(F)c(C(=O)c2c[nH]c3ncc(-c4ccc(Cl)cc4)cc23)c1F [vemurafenib]
[1]; kinase HIPK1, compound at 1 μM
  %-inhibition of HIPK1: -4.72%
[2]; kinase MARK1, compound at 1 μM
  %-inhibition of MARK1: -9%
[3]; kinase EPHA2, compound at 1 μM
  %-inhibition of EPHA2: 0.715%
[4]; kinase PDK1, 1 μM
  %-inhibition of PDK1: -4%
[5]; kinase MRCKα, 1 μM
  %-inhibition of MRCKα: 0.383%
[6]; kinase Erk1, compound at 1 μM
  %-inhibition of Erk1: 0.0533%
[7]; kinase PKACα, 1 μM
  %-inhibition of PKACα: -4%
[8]; kinase MST3, 1 μM
  %-inhibition of MST3: -1.73%
[9]; kinase PKR, 1 μM
  %-inhibition of PKR: -0.765%
[10]; kinase SGK, 1 μM
  %-inhibition of SGK: -0.122%
[11]; kinase HIPK4, compound at 1 μM
  %-inhibition of HIPK4: -0.437%

## C#Cc1cccc(Nc2ncnc3cc(OCCOC)c(OCCOC)cc23)c1 [erlotinib]
[1]; 1 µM
  %-inhibition of HIPK1: 12%
[2]; 1 µM
  %-inhibition of MARK1: 11%
[3]; 1 µM
  %-inhibition of EPHA2: 18%
[4]; 1 µM
  %-inhibition of PDK1: 3%
[5]; 1 µM
  %-inhibition of MRCKα: -6%
[6]; 1 µM
  %-inhibition of Erk1: 0.357%
[7]; 1 µM
  %-inhibition of PKACα: 4.34%
[8]; 1 µM
  %-inhibition of MST3: 3.69%
[9]; 1 µM
  %-inhibition of PKR: 22%
[10]; 1 µM
  %-inhibition of SGK: 6%
[11]; 1 µM
  %-inhibition of HIPK4: 37%

## Cc1cn(-c2cc(NC(=O)c3ccc(C)c(Nc4nccc(-c5cccnc5)n4)c3)cc(C(F)(F)F)c2)cn1 [nilotinib]
[1]; kinase HIPK1, compound at 1 μM
  %-inhibition of HIPK1: 14%
[2]; kinase MARK1, compound at 1 μM
  %-inhibition of MARK1: 12%
[3]; 1 µM
  %-inhibition of EPHA2: 95%
[4]; kinase PDK1, 1 μM
  %-inhibition of PDK1: -4.33%
[5]; kinase MRCKα, 1 μM
  %-inhibition of MRCKα: -13%
[6]; kinase Erk1, compound at 1 μM
  %-inhibition of Erk1: 3.21%
[7]; 1 µM
  %-inhibition of PKACα: 3.31%
[8]; kinase MST3, 1 μM
  %-inhibition of MST3: 0.797%
[9]; 1 µM
  %-inhibition of PKR: 0%
[10]; kinase SGK, 1 μM
  %-inhibition of SGK: 9%
[11]; kinase HIPK4, compound at 1 μM
  %-inhibition of HIPK4: 37%

## CC(=O)Nc1cccc(-n2c(=O)n(C3CC3)c(=O)c3c(Nc4ccc(I)cc4F)n(C)c(=O)c(C)c32)c1 [trametinib]
[1]; kinase HIPK1, compound at 1 μM
  %-inhibition of HIPK1: -3.71%
[2]; kinase MARK1, compound at 1 μM
  %-inhibition of MARK1: -17%
[3]; kinase EPHA2, compound at 1 μM
  %-inhibition of EPHA2: -8.53%
[4]; kinase PDK1, 1 μM
  %-inhibition of PDK1: -5.52%
[5]; kinase MRCKα, 1 μM
  %-inhibition of MRCKα: -0.565%
[6]; kinase Erk1, compound at 1 μM
  %-inhibition of Erk1: -1.14%
[7]; kinase PKACα, 1 μM
  %-inhibition of PKACα: 8.52%
[8]; kinase MST3, 1 μM
  %-inhibition of MST3: 1.75%
[9]; kinase PKR, 1 μM
  %-inhibition of PKR: 1.13%
[10]; kinase SGK, 1 μM
  %-inhibition of SGK: 0.217%
[11]; kinase HIPK4, compound at 1 μM
  %-inhibition of HIPK4: 2.78%
